Laboratory results taken from US9695155B2, “Herbicidal substituted pyrimidinyloxy benzene compounds” (E. I. DU PONT DE NEMOURS AND COMPANY, priority 2013, dated 2017).

How the values were obtained:
[1] = tested on: barnyardgrass; test: Test A preemergence; assay type: in vivo, Echinochloa crus-galli; settings: for Barnyardgrass plant response rating (0 to 100 scale, 0 is no effect, 100 is complete control): 125 g ai/ha
Procedure, shortened: (§1)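 Compounds in non-phytotoxic solvent with surfactant applied as soil spray preemergence, or postemergence to plants 2-10 cm at one- to two-leaf stage, in loam/sand. After approximately 10 days in greenhouse, injury rated visually versus untreated controls, 0 (no effect) to 100 (complete control).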

[2] = tested on: Italian ryegrass; test: Test C preemergence; assay type: in vivo, Lolium multiflorum
Procedure, shortened: (§2)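 Preemergence: seeds sown in a loam soil–sand blend and sprayed with test chemical in a non-phytotoxic solvent mixture containing surfactant. Postemergence: plants at 2 to 18 cm (1- to 4-leaf stage) in peat-based medium, treated with the same formulation. Greenhouse 13 to 15 days, then visual rating 0 (no effect) to 100 (complete control).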

[3] = tested on: wheat, winter; test: Test C preemergence; assay type: in vivo, Triticum aestivum
Description: (§3) Seeds of plant species selected from blackgrass (Alopecurus myosuroides), Italian ryegrass (Lolium multiflorum), wheat, winter (winter wheat, Triticum aestivum), galium (catchweed bedstraw, Galium aparine), corn (Zea mays), large (Lg) crabgrass (Digitaria sanguinalis), giant foxtail (Setaria faberii), johnsongrass (Sorghum halepense), lambsquarters (Chenopodium album), morningglory (Ipomoea coccinea), yellow nutsedge (Cyperus esculentus), pigweed (Amaranthus retroflexus), ragweed (common ragweed, Ambrosia elatior), soybean (Glycine max), barnyardgrass (Echinochloa crus-galli), oilseed rape (Brassica napus), waterhemp (common waterhemp, Amaranthus rudis), kochia (Kochia scoparia), wild oat (Avena fatua), surinam grass (Brachiaria decumbens), foxtail, green (green foxtail, Setaria viridis), goosegrass (Eleusine indica), bromegrass, downy (downy bromegrass, Bromus tectorum), nightshade (eastern black nightshade, Solanum ptycanthum), cocklebur (common cocklebur, Xanthium strumarium), cupgrass, woolly (woolly cupgrass, Eriochloa villosa), bermudagrass (Cynodon dactylon), sunflower, (common oilseed sunflower, Helianthus annuus), Russian thistle (Salsola kali), and velvetleaf (Abutilon theophrasti) were planted into a blend of loam soil and sand and treated preemergence with test chemicals formulated in a non-phytotoxic solvent mixture which included a surfactant.
(§4) At the same time, plants selected from these crop and weed species and also barley, winter (winter barley, Hordeum vulgare), windgrass (Apera spica-venti), chickweed (common chickweed, Stellaria media), deadnettle (henbit deadnettle, Lamium amplexicaule), and canarygrass (littleseed canarygrass, Phalaris minor) were planted in pots containing Redi-Earth® planting medium (Scotts Company, 14111 Scottslawn Road, Marysville, Ohio 43041) comprising spaghnum peat moss, vermiculite, wetting agent and starter nutrients and treated with postemergence applications of test chemicals formulated in the same manner. Plants ranged in height from 2 to 18 cm (1- to 4-leaf stage) for postemergence treatments. Treated plants and controls were maintained in a greenhouse for 13 to 15 days, after which time all species were compared to controls and visually evaluated. Plant response ratings, summarized in Table C, are based on a scale of 0 to 100 where 0 is no effect and 100 is complete control. A dash (-) response means no test result.

[4] = tested on: barnyardgrass; test: Test B flooded paddy test; assay type: in vivo, Echinochloa crus-galli; settings: Flood, 250 g ai/ha, 0 to 100 scale where 0 is no effect and 100 is complete control
Procedure, shortened: (§5)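 Plants were grown to the 2-leaf stage, then pots were flooded to 3 cm above the soil and compounds were applied directly into the paddy water. That depth was held throughout, and after 13 to 15 days in the greenhouse injury was rated visually against controls on a 0–100 scale (0 no effect, 100 complete control).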

[5] = tested on: wheat; test: Test A postemergence; assay type: in vivo, Triticum aestivum
Procedure, shortened: as §1

[6] = tested on: large (Lg) crabgrass; test: Test C preemergence; assay type: in vivo, Digitaria sanguinalis
Description: as §3, §4

[7] = tested on: blackgrass; test: Test C preemergence; assay type: in vivo, Alopecurus myosuroides
Procedure, shortened: as §2

[8] = tested on: Heteranthera limosa; test: Test B flooded paddy test; assay type: in vivo; settings: Flood, 250 g ai/ha, 0 to 100 scale where 0 is no effect and 100 is complete control
Procedure, shortened: as §5

[9] = 16 g ai/ha, preemergence, scale 0 to 100 (0 no effect, 100 complete control)
[10] = 125 g ai/ha, preemergence, scale 0 (no effect) to 100 (complete control)
[11] = Preemergence, 62 g ai/ha, scale 0 to 100, 0 no effect, 100 complete control

`N#Cc1cccc(Oc2ncc(Cl)cn2)c1-n1cnc(C(F)(F)F)c1` [Compound 252, 3-[(5-chloro-2-pyrimidinyl)oxy]-2-[4-(trifluoromethyl)-1H-imidazol-1-yl]benzonitrile] was tested, and the “Barnyardgrass plant response rating (0 to 100 scale, 0 is no effect, 100 is complete control)” value [1] was 100, the pest or weed control at 31 g/ha ([1]; Echinochloa crus-galli, pre-emergence, 240 h, 31 g ai/ha, 0 to 100 scale where 0 is no effect and 100 is complete control, visual, approximately 10 days, read-out: Plant response rating, Barnyardgrass) was 70% and the pest or weed control at 500 g/ha ([1]; Echinochloa crus-galli, pre-emergence, 240 h, 500 g ai/ha, 0 to 100 scale where 0 is no effect and 100 is complete control, read-out: Barnyardgrass plant response rating) was 100%. It also gave a pest or weed control at 16 g/ha ([2]; Lolium multiflorum, pre-emergence, 16 g ai/ha, preemergence, scale 0 to 100 (0 no effect, 100 complete control), read-out: Ryegrass, Italian plant response rating) of 0%, a pest or weed control at 125 g/ha ([2]; Lolium multiflorum, pre-emergence, 125 g ai/ha, preemergence, scale 0 (no effect) to 100 (complete control), read-out: Ryegrass, Italian plant response rating) of 90% and a pest or weed control at 62 g/ha ([2]; Lolium multiflorum, pre-emergence, Preemergence, 62 g ai/ha, scale 0 to 100, 0 no effect, 100 complete control, read-out: Plant response rating, Ryegrass, Italian) of 60%. It also gave a plant injury at 16 g/ha ([3]; Triticum aestivum, pre-emergence, 16 g ai/ha, preemergence, scale 0 to 100 (0 no effect, 100 complete control), read-out: Wheat plant response rating) of 0%, a plant injury at 125 g/ha ([3]; Triticum aestivum, pre-emergence, 125 g ai/ha, preemergence, scale 0 (no effect) to 100 (complete control), read-out: Wheat plant response rating) of 45% and a plant injury at 62 g/ha ([3]; Triticum aestivum, pre-emergence, Preemergence, 62 g ai/ha, scale 0 to 100, 0 no effect, 100 complete control, read-out: Plant response rating, Wheat) of 0%. The pest or weed control at 250 g/ha ([4]; Echinochloa crus-galli, read-out: Plant response rating, Barnyardgrass) was 40%, the plant injury at 31 g/ha ([5]; Triticum aestivum, post-emergence, 240 h, 31 g ai/ha, 0 to 100 scale, 0 no effect, 100 complete control, read-out: Plant response rating, Wheat) was 20% and the plant injury at 125 g/ha ([5]; Triticum aestivum, post-emergence, 240 h, 125 g ai/ha, 0 to 100 scale, 0 no effect, 100 complete control, read-out: Plant response rating, Wheat) was 30%. The plant injury at 500 g/ha ([5]; Triticum aestivum, post-emergence, 240 h, 500 g ai/ha, 0 to 100 scale where 0 is no effect and 100 is complete control, read-out: Plant response rating, Wheat) was 90%, the pest or weed control at 16 g/ha ([6]; Digitaria sanguinalis, pre-emergence, 16 g ai/ha, preemergence, scale 0 to 100 (0 no effect, 100 complete control), read-out: Crabgrass, Large plant response rating) was 60% and the pest or weed control at 125 g/ha ([6]; Digitaria sanguinalis, pre-emergence, 125 g ai/ha, preemergence, scale 0 (no effect) to 100 (complete control), read-out: Crabgrass, Large plant response rating) was 100%. The pest or weed control at 62 g/ha ([6]; Digitaria sanguinalis, pre-emergence, Preemergence, 62 g ai/ha, scale 0 to 100, 0 no effect, 100 complete control, read-out: Plant response rating, Crabgrass, Large) was 100%, the pest or weed control at 16 g/ha ([7]; Alopecurus myosuroides, pre-emergence, 16 g ai/ha, preemergence, scale 0 to 100 (0 no effect, 100 complete control), read-out: Blackgrass plant response rating) was 10% and the pest or weed control at 125 g/ha ([7]; Alopecurus myosuroides, pre-emergence, 125 g ai/ha, preemergence, scale 0 (no effect) to 100 (complete control), read-out: Blackgrass plant response rating) was 95%. For the same compound, the pest or weed control at 62 g/ha ([7]; Alopecurus myosuroides, pre-emergence, Preemergence, 62 g ai/ha, scale 0 to 100, 0 no effect, 100 complete control, read-out: Plant response rating, Blackgrass) was 90% and the pest or weed control at 250 g/ha ([8]; Heteranthera limosa, read-out: Plant response rating, Ducksalad) was 75%.
With `Fc1cccc(Oc2ncc(Cl)cn2)c1-n1cc(OCC(F)(F)F)cn1` [Compound 270] the “Plant response rating, Barnyardgrass” value ([1]; 31 g ai/ha, 0 to 100 scale where 0 is no effect and 100 is complete control, visual, approximately 10 days) was 20, the “Barnyardgrass plant response rating (0 to 100 scale, 0 is no effect, 100 is complete control)” value [1] was 100 and the “Ryegrass, Italian plant response rating” value [2, 9] was 0. The “Ryegrass, Italian plant response rating” value [2, 10] was 50, the “Plant response rating, Ryegrass, Italian” value [2, 11] was 10 and the “Wheat plant response rating” value [3, 9] was 0. The “Wheat plant response rating” value [3, 10] was 5, the “Plant response rating, Wheat” value [3, 11] was 0 and the “Plant response rating, Barnyardgrass” value [4] was 35. The “Plant response rating, Wheat” value ([5]; 31 g ai/ha, 0 to 100 scale, 0 no effect, 100 complete control) was 0, the “Plant response rating, Wheat” value ([5]; 125 g ai/ha, 0 to 100 scale, 0 no effect, 100 complete control) was 30 and the “Crabgrass, Large plant response rating” value [6, 9] was 50. For the same compound, the “Crabgrass, Large plant response rating” value [6, 10] was 100, the “Plant response rating, Crabgrass, Large” value [6, 11] was 100 and the “Blackgrass plant response rating” value [7, 9] was 0. For the same compound, the “Blackgrass plant response rating” value [7, 10] was 95, the “Plant response rating, Blackgrass” value [7, 11] was 70 and the “Plant response rating, Ducksalad” value [8] was 100.
